Assay results taken from ChEMBL document CHEMBL1146558, “Constituents from the stems of Aristolochia manshuriensis” (J Nat Prod, 2003).
In brackets after ≈: the same amount, converted by molar mass. Activity calls are given as the source filed them. The calls are words filed in the database; no cut-off is given here.

Columns and labels:
[1] = test system: Human immunodeficiency virus; test: Antiviral activity against HIV infected in human H9 cells; assay type: functional, organism-based; details: Human immunodeficiency virus 1, H9
H9 = test: Cytotoxicity against human H9 cells; assay type: cell-based
[2] = Therapeutic index, ratio of IC50 for human H9 cells to EC50 for HIV; assay type: cell-based; details: read-out: Ratio IC50/EC50
MCF7 = test: Cytotoxicity against human MCF7 cells after 3 days by SRB assay; assay type: functional, cell-based
A549 = test: Cytotoxicity against human A549 cells after 3 days by SRB assay; assay type: functional, cell-based

Row | EC50 [1] | SMILES | IC50 (H9) | selectivity ratio [2] | Activity (MCF7) | Activity (A549)
1 | 17.5 µg/mL (≈ 67.8 µM) | CC1=C2OC(C)(C)c3c(O)cc(C)c(c32)C(=O)C1=O [DEHYDROOXOPEREZINONE] | 25.1 µg/mL (≈ 97.2 µM) | 1.43 | inactive | inactive
2 |  | COc1cc(/C=C/C(=O)NCCc2ccc(O[C@@H]3O[C@H](CO)[C@@H](O)[C@H](O)[C@H]3O)c(OC)c2)ccc1O[C@@H]1O[C@H](CO)[C@@H](O)[C@H](O)[C@H]1O |  |  | inactive | inactive
3 |  | O=C(O)c1cc2c(c3c1ccc1ccccc13)OCO2 |  |  | inactive | inactive
